Results as given in publication PMC11714206, “Massively Parallel Screening of Toll/Interleukin‐1 Receptor (TIR)‐Derived Peptides Reveals Multiple Toll‐Like Receptors (TLRs)‐Targeting Immunomodulatory Peptides” (Advanced Science, 2024).
One block for each compound: values may come before it. Where no end group is shown, it is not given here.

Key:
[1] = parameters: method as in PMID 19661804; settings: possibly due to late administration; cited from earlier work
Text: (§1) Treatment of macrophage cells with synthetic TDIPs containing a cell‐penetrating moiety suppressed TLR4‐dependent inflammatory pathways in a dose‐dependent manner. Moreover, the selected TDIPs exerted broad‐spectrum TLR‐inhibitory effects by inhibiting interactions between TIR domain‐containing proteins, which enhanced the therapeutic efficacy in the murine sepsis model. Although we applied TDIP simultaneously with LPS, the timing of TLR inhibitor administration remains a critical consideration. ...

[2] = biological target: T1, TIR domain of MyD88 (Homo sapiens, UniProt Q99836); assay: Fluorescence polarization (FP) assay, MyD88 TIR; assay type: binding; settings: Cy5‐labeled TDIP1 50 nM, TIR domain diluted 1:1 from 40 µM, 30 min RT, ± SD, n = 3, read-out: apparent Kd against MyD88
T1 construct: MyD88 (residues 148–296); 6xHis; made in house; host or cells: E. coli BL21 (DE3)
Method: (§2) Figure 6 Molecular characterization of TDIPs. (a) Co‐immunoprecipitation of TIR domains and TDIPs. Lysates of HEK293T cells expressing FLAG‐tagged TIR domains were incubated with the indicated TDIPs. Peptides were blotted with an antibody against the penetratin sequence. Created with BioRender.com. (b) Fluorescence polarization binding assay of the Cy5‐labeled TDIP1 against TIR domains of Myd88, TRAM, and MAL. Error bars represent ± SD (n = 3). (c) Human serum stability (half‐life) of the TDIPs was measured. The percentage of the remaining peptide was quantified up to 72 h. (d) The secondary structure of the selected TDIPs was determined by circular dichroism. […] (e) TDIP1 and its truncates were compared for inhibition of TLR4 signaling by using HEK‐Blue^TM hTLR4 cells. Data are presented as mean ± SD. ^****p < 0.0001. All significance is versus the LPS‐treated CP group. n.s., not significant.
(§3) Fluorescence polarization assays were carried out using a 384‐well black non‐binding microplate (Corning, CLS4514). TDIP1 peptide was synthesized by ANYGEN with N‐terminal Cy5 at >95% purity. The lyophilized peptide was reconstituted in ultrapure water (Invitrogen) to a concentration of 1 mM. The peptide was diluted with 10× PBS to make a final solution of 100 nM. […] After mixing the samples, the plate was incubated for 30 min at RT and read using an Infinite M1000 (Tecan, Mannedorf, Switzerland).

[3] = biological target: T2, TIR domain of TRAM (Homo sapiens, UniProt Q86XR7); assay: Fluorescence polarization (FP) assay, TRAM TIR; assay type: binding; settings: Cy5‐labeled TDIP1 50 nM, TIR domain diluted 1:1 from 40 µM, 30 min RT, ± SD, n = 3, read-out: apparent Kd against TRAM
T2 construct: purified TIR domains of MyD88, TRAM, and MAL
Method: as §2, §3

[4] = biological target: T3, TIR domain of MAL (Homo sapiens, UniProt P58753); assay: Fluorescence polarization (FP) assay, MAL TIR; assay type: binding; settings: Cy5‐labeled TDIP1 50 nM, TIR domain diluted 1:1 from 40 µM, 30 min RT, ± SD, n = 3, read-out: apparent Kd against MAL
T3 construct: MAL (residues 79–221); 6xHis; made in house; host or cells: E. coli BL21 (DE3)
Method: as §2, §3

[5] = Serum stability analysis; assay type: in vitro ADME; settings: human serum (Sigma H4522), 1 mM peptide in water mixed 1:1 (v/v) with serum, 37 °C, SDS‐PAGE, Coomassie band intensity (ImageJ); for half-life at 0.5 mM: 0–72 h
Method: as §2
The first step of the serum stability analysis was performed as previously described^[ [60] ^] with a minor modification. Human serum (Sigma‐Aldrich, H4522) was thawed on ice and centrifuged at 18 000 × g for 10 min at 4 °C to remove lipids. The supernatant was incubated at 37 °C for 15 min to activate the proteins. Each peptide was prepared at a concentration of 1 mM in ultrapure water and mixed with human serum in a 1:1 (v/v) ratio. The mixed solutions were incubated at 37 °C for various periods (0, 1, 3, 6, 12, 24, 48, and 72 h). A mixture of ultrapure water and human serum was used as the blank. A total of 3 µg of the peptide was loaded on an SDS–polyacrylamide gel and stained with InstantBlue Coomassie Protein Stain (Abcam). The intensity of the remaining peptide bands was quantified using ImageJ and plotted.

[6] = tested on: human conjunctival epithelial cells and rabbit cornea; settings: cited from earlier work
[7] = tested on: polymicrobial sepsis model; parameters: method as in PMID 18305095; settings: administration 3 h before or 6 h after CLP surgery; cited from earlier work
Text: as §1

[8] = biological target: T4, MAL^TIR (Homo sapiens, UniProt P58753); assay: T‐Surf phage library (P8 and P3) selection against MAL^TIR, four rounds, NGS read counts; assay type: binding
T4 construct: MAL (residues 79–221); 6xHis; made in house; host or cells: E. coli BL21 (DE3)
In short: (§4)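 Read counts come from NGS of phage pools enriched over four selection rounds on the plate‐coated TIR domain (5 µg mL^−1). Each round: 1 h phage binding at room temperature after 0.2% BSA blocking, Tween washes, acid elution, amplification in E. coli TG1 with M13KO7 helper.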

[9] = biological target: T5, MyD88^TIR (Homo sapiens, UniProt Q99836); assay: T‐Surf phage library (P8 and P3) selection against MyD88^TIR, four rounds, NGS read counts; assay type: binding; settings: P3_MyD88 pool: P3 T-Surf phage library, 4th round of selection against MyD88 TIR, share of NGS reads
T5 construct: MyD88 (residues 148–296); 6xHis; made in house; host or cells: E. coli BL21 (DE3)
In short: as §4

T4 sequence (P58753 79-221): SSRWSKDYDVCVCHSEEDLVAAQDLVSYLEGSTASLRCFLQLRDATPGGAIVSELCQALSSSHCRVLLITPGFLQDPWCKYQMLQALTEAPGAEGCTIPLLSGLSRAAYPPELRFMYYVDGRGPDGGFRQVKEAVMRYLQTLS
T5 sequence (Q99836 148-296): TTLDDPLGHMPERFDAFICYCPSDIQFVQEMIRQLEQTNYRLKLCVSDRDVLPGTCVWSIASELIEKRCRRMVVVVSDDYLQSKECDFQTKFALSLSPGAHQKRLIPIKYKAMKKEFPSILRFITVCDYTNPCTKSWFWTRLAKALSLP
T3 sequence (P58753 79-221): as the sequence (P58753 79-221) above
T2 sequence (Q86XR7 73-229 limits assumed): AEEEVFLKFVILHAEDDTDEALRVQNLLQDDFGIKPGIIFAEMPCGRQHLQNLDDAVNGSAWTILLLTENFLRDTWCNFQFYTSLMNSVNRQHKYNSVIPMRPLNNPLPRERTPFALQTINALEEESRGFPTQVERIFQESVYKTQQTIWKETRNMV
T1 sequence (Q99836 148-296): as the sequence (Q99836 148-296) above

Compound: CCCCCC/C=C\CCCCCCCCCC(=O)N[C@H]1[C@H](OC[C@H]2O[C@H](OP(=O)(O)O)[C@H](NC(=O)CC(=O)CCCCCCCCCCC)[C@@H](OCCCCCCCCCC)[C@@H]2O)O[C@H](COC)[C@@H](OP(=O)(O)O)[C@@H]1OCC[C@@H](CCCCCCC)OC [Eritoran tetrasodium]
- outcome in clinical trials [1]: failed in clinical trials

Compound: RQIKIWFQNRRMKWKKWFYERLVSLILRDTKV [TDIP1]
- Kd [2]: 2.8 ± 0.46 µM
- Kd [3]: 1.46 ± 0.11 µM
- Kd [4]: 4.49 ± 0.72 µM
- remaining peptide after 48 h of incubation in human serum [5]: up to 50%

Compound: RQIKIWFQNRRMKWKKTFLGHLYNALVQAGIH [TDIP5]
- half-life at 0.5 mM [5]: ~6 h

Compound: RQIKIWFQNRRMKWKKLVAHEISKKMKIFATI [TDIP20]
- half-life at 0.5 mM [5]: < 1 h

Compound: penetratin
- cellular and tissue toxicity compared with other CPPs such as TAT and polyarginine [6]: lower cellular and tissue toxicity
- cellular uptake [6]: excellent cellular uptake

Compound: RQIKIWFQNRRMKWKKLFFWESLKQLLRSDGR [TDIP6]
- remaining peptide after 48 h of incubation in human serum [5]: up to 50%

Compound: CCN(CC)CCCC(C)Nc1ccnc2cc(Cl)ccc12 (stereo not shown) [chloroquine]
- survival in polymicrobial sepsis model [7]: markedly improved survival

- Population ([8]; P3_MAL pool: P3 T-Surf phage library, 4th round of selection against MAL TIR, share of NGS reads): 0.00338%
- Population [9]: 0.00437%
Compound: SSFREGLWRLLVLSKK

- Rank (after) ([8]; P3_MAL: rank by count after grouping): 142
- Rank (before) ([8]; P3_MAL: rank by count before grouping): 847
- Population [9]: 0.0032%
Compound: LKVESWRDALTKVASL
